{"source": "patent US20120238488A1", "about": "“COMPOUNDS AND METHODS FOR TREATING NEOPLASIA” (priority 2009, published 2012)", "key": {"UAC032 (Melanoma)": {"tested_on": "UAC032 (Melanoma)", "assay": "SRB assay, UAC032", "type": "cell-based, human", "settings": "48 h", "procedure": "SRB assays were performed according to standard National Cancer Institute Guidelines. Briefly, human tumor cells from different cancer panels were seeded into 96 well plates in 100 μL (plating densities ranging from 5-40,000 cells/well depending on the doubling time of individual cell lines) in serum-containing media for twenty-four hours prior to the addition of the compounds to be assayed. After 24 hours, one plate of each cell line was fixed in situ with trichloroacetic acid (TCA). The fixed slides were used to determine the cell population for each cell line at the time of drug addition (Tz). Each compound to be tested was solubilized in DMSO and the desired concentration was then added to the medium and diluted serially 1:10 to provide a total of five or ten drug concentrations plus control (in a final volume of 200 μL). The starting dose before any dilution was 100 uM for all compounds.\nFollowing drug addition, each culture was incubated for forty-eight hours. The assay was terminated with the addition of cold TCA. The supernatant was discarded, and the plates were washed with tap water and air dried. Sulforhodamine B (SRB) solution was then added to each well. After staining, the bound stain was solubilized and the absorbance was read on an automated plate reader at a wavelength of 515 nm.\nUsing the absorbance measurements [time zero, (Tz), control growth, (C), and test growth in the presence of drug at the ten concentration levels (Ti)], the percentage growth was calculated at each of the drug concentrations levels. Percentage growth inhibition was calculated as:\n[(Ti−Tz)/(C−Tz)]×100 for concentrations for which Ti>/=Tz […]\nThree dose response parameters were calculated for each experimental agent. […] The drug concentration resulting in total growth inhibition (TGI) was calculated from Ti=Tz. […]\nValues were calculated for each of these three parameters when the level of activity was reached; however, if the effect was not reached or was exceeded, the value for that parameter was expressed as greater or less than the maximum or minimum concentration tested. […]"}, "[1]": {"tested_on": "DU145 prostate cancer cells", "assay": "MTT assay, combination with paclitaxel", "settings": "DU145, FIG. 1E", "procedure": "Cell proliferation/viability was assessed by the MTT [3-(4,5-dimethylthiazol-2-yl)-2,5-diphenyltetrazolium bromide] assay, which is commercially available (Sigma, St. Louis, Mo.). Cells were cultured in 96-well plates for twenty-four hours (7-10.000 cells/well) and incubated with various concentrations of the compounds of the invention in serum-containing medium (or left untreated) for seventy-two hours. At the end of incubation, the medium was aspirated and MTT dissolved in RPMI 1640 w/o phenol red was added to each well to a final concentration of 0.25 mg/ml. After four hours incubation in the dark (37° C., 5% CO2) the supernatant was discarded. The converted dye (blue formazan crystals) was solubilized by adding 200 μl dimethylsulfoxide to each well. Absorbance was measured at 550 nm with reference at 655 nm using a spectrophotometer with the respective filters. All assays were performed in triplicate."}, "[2]": {"tested_on": "membrane androgen receptor", "assay": "Membrane androgen receptor competition assay, LNCaP cells", "type": "binding", "settings": "40 μM compound 30 minutes before 40 μM testosterone-HSA-FITC, FIG. 3A", "method": "After a 24 hour serum starvation period, cells were incubated with 40 μM testosterone-HSA-FITC for 1 hour at room temperature. […] Human serum albumin-FITC was used as a control for background staining. After permeabilization with ice-cold acetone for 4 minutes at room temperature, cell nuclei were stained with DAPI. Coverslips were mounted on slides by using the Slow Fade/Antifade Reagent (Molecular Probes) and studied under a LEICA DMLB microscope, equipped with the appropriate fluorescence filters and a Leica DC 300F camera. Specimens were analyzed using the Leica FW4000 computer program.\nTo determine the capacity of a given compound to preclude binding of fluorescent testosterone-HSA conjugates (TAC) to the membrane androgen receptor, starved LNCaP or DU145 cells on coverslips prepared as described above were pre-treated with 40 μM of the indicated compound for 30 minutes prior to the addition of testosterone-HSA-FITC. At the end of the incubation period, cells were washed twice with PBS and 40 μM of testosterone-HSA-FITC was added. Specimens were prepared and analyzed as described above."}, "[3]": {"tested_on": "membrane androgen receptor", "assay": "Membrane androgen receptor competition assay, DU145 cells", "type": "binding", "settings": "40 μM compound 30 minutes before 40 μM testosterone-HSA-FITC, FIGS. 3B, 3C", "source_text": "To assess whether compounds of the invention were capable of binding directly to the membrane androgen receptor, a fluorescent-based assay was used to measure the ability of a given compound to preclude binding of a fluorescent mAR ligand (testosterone-HSA-FITC conjugates) to its receptor in LNCaP and DU145 cells (see Kampa, M et al, 2002, Faseb J 16:1429-1431, and PCT/U52007/007913).\nThe detection of membrane androgen receptors using fluorescent testosterone-serum albumin conjugates was performed as described by Kampa, M et al, 2002, Faseb J 16:1429-1431, with minor modifications. Briefly, LNCaP or DU145 prostate cancer cells were cultured on 0.1% gelatin-coated glass coverslips in RPMI 1640 medium supplemented with 2 mM L-Glutamine, 10% Fetal Bovine Serum and 1% Penicillin/Streptomycin for at least 48 hours until reaching 70% confluency. After a 24 hour serum starvation period, cells were incubated with 40 μM testosterone-HSA-FITC for 1 hour at room temperature. The cells were then washed three times with phosphate buffered saline (PBS) and fixed with 3.7% formaldehyde in PBS for 5 minutes at room temperature. Human serum albumin-FITC was used as a control for background staining. […] Coverslips were mounted on slides by using the Slow Fade/Antifade Reagent (Molecular Probes) and studied under a LEICA DMLB microscope, equipped with the appropriate fluorescence filters and a Leica DC 300F camera. Specimens were analyzed using the Leica FW4000 computer program.\nTo determine the capacity of a given compound to preclude binding of fluorescent testosterone-HSA conjugates (TAC) to the membrane androgen receptor, starved LNCaP or DU145 cells on coverslips prepared as described above were pre-treated with 40 μM of the indicated compound for 30 minutes prior to the addition of testosterone-HSA-FITC. […] Specimens were prepared and analyzed as described above. Compounds binding to the membrane androgen receptor preclude binding of fluorescent testosterone-HSA conjugates to their target and abolish membrane-specific fluorescence."}, "[4]": {"tested_on": "A549 xenografts (lung carcinoma)", "assay": "A549 xenograft anti-tumor activity", "type": "in vivo, Nod/Scid mice", "settings": "for DT/DC / post mortem analysis on excised tumors: tumor growth inhibition: A549 xenografts, compound 56 20 mgk, paclitaxel 18 mgk; for DT/DC: day 24, intraperitoneal", "procedure": "All administrations were intraperitoneal.\nAt day 20 post inoculation (dpi), mean tumor volume was measured at 117.6 mm^3.\nCompound 56 was administered intraperitoneallly using a [(QD×5;2) ×5] scheme. Paclitaxel, used as a positive control, was injected twice weekly for 5 cycles (Tuesday & Friday)."}}}
{"smiles": "C[C@]12CCC(=NOCCN)C=C1CCC1C2CC[C@]2(C)C(=O)CCC12", "note": "(stereo partly drawn) [Compound 12, (10R,13S)-3-(2-aminoethoxyimino)-10,13-dimethyl-2,3,7,8,9,10,11,12,13,14,15,16-dodecahydro-1H-cyclopenta[a]phenanthren-17(6H)-one]", "values": [{"measurement": "CC50", "setting": "UAC032 (Melanoma); Homo sapiens, read-out: LC50", "result": 49.5, "unit": "µM"}, {"measurement": "GI50", "setting": "UAC032 (Melanoma); Homo sapiens, UAC032, SRB", "result": 4.57, "unit": "µM"}, {"measurement": "TGI", "setting": "UAC032 (Melanoma); UAC032, SRB", "result": 7.64, "unit": "µM"}, {"measurement": "enhancement of the cytotoxic action of paclitaxel", "setting": "[1]; 1 or 2 uM compound 12 added to paclitaxel 20 nM", "result": "clearly enhances the cytotoxic action"}, {"measurement": "membrane fluorescence of TAC-FITC after pre-treatment (binding to mAR precluded)", "setting": "[2]", "result": "devoid of membrane fluorescence"}, {"measurement": "membrane fluorescence of TAC-FITC after pre-treatment (binding to mAR precluded)", "setting": "[3]", "result": "devoid of membrane fluorescence"}]}
{"smiles": "C[C@]12CCC(=NOC3CCNC3)CC1CCC1C2CC[C@]2(C)C(=O)CCC12", "note": "(stereo partly drawn) [Compound 56, (10S,13S)-10,13-dimethyl-3-(pyrrolidin-3-yloxyimino)tetradecahydro-1H-cyclopenta[a]phenanthren-17(2H)-one]", "values": [{"measurement": "weight changes", "setting": "[4]; A549 xenograft mice, 20 mgk intraperitoneal", "result": "no significant weight changes"}, {"measurement": "DT/DC", "setting": "[4]", "result": "−10.47", "unit": "%"}, {"measurement": "post mortem analysis on excised tumors: tumor growth inhibition", "setting": "[4]", "result": "statistical significant tumor growth inhibition"}, {"measurement": "anti-tumor activity in A549 xenografts (FIG. 2B)", "setting": "[4]; mouse, in vivo", "result": "has anti-tumor activities"}, {"measurement": "membrane fluorescence of TAC-FITC after pre-treatment (binding to mAR precluded)", "setting": "[3]", "result": "devoid of membrane fluorescence"}]}
{"smiles": "CC(=O)O[C@H]1C(=O)[C@@]2(C)[C@H]([C@H](OC(=O)c3ccccc3)[C@]3(O)C[C@H](OC(=O)[C@H](O)[C@@H](NC(=O)c4ccccc4)c4ccccc4)C(C)=C1C3(C)C)[C@]1(OC(C)=O)CO[C@@H]1C[C@@H]2O", "note": "[Paclitaxel, reference compound]", "values": [{"measurement": "cytotoxic activity alone", "setting": "[1]; paclitaxel 20 nM", "result": "limited cytotoxic activity"}, {"measurement": "DT/DC", "setting": "[4]", "result": "−46,68%"}, {"measurement": "post mortem analysis on excised tumors: tumor growth inhibition", "setting": "[4]", "result": "statistical significant tumor growth inhibition"}]}
